Experimental data from patent US7297700B2, “Bicycloheteroaryl compounds as P2X7 modulators and uses thereof” (Renovis, Inc., priority 2005, dated 2007).

Tested on: IL-1β release from THP-1 cells
Assay: IL-1β Release Assay (Alternate Method), THP-1 cells
Format: cell-based, human
Details: Homo sapiens, THP-1, read-out: IL-1β % inhibition
Method: THP-1 cells (ATCC Cat #285-IF-100) are plated in 96 well plates at a concentration of 200,000 cells per well and allowed to differentiate in RPMI-1640 media (ATCC Cat #30-2001) containing 10% FBS, 100 IU/mL penicillin, 100 ug/mL streptomycin, 100 ng/mL LPS and 100 ng/mL IFN-γ for 16 hours. Following differentiation, the cells are treated for an additional 2 hours in RPMI-1640 media containing 100 IU/mL penicillin, 100 ug/mL streptomycin and fresh LPS at 100 ng/mL. The cells are then pretreated for 30 minutes with the compound of interest at the appropriate concentration in RPMI media containing 100 IU/mL penicillin, 100 ug/mL streptomycin. Following the pretreatment 2′, 3′-O-(4-benzoylbenzoyl)-adenosine 5′-triphosphate (Sigma Aldrich Cat#B6396) is added to a final concentration of 250 uM and the cells incubated for an additional 45 minutes. 30 uL of cell supernatant is then collected and IL-1β levels determined via ELISA (R&D systems Cat. #HSLB50) according to manufacturer's recommendations using the Tecan Safire plate reader. Background adjusted IL-1β levels of drug treated and non-treated cells are used to calculate the percent inhibition.

SMILES	inhibition at 0.3 µM [%]
O=C(CC12CC3CC(CC(C3)C1)C2)Nc1ncnc2c1CCN(CCCO)C2 [Compound 19, 2-adamantan-1-yl-N-[7-(3-hydroxy-propyl)-5,6,7,8-tetrahydro-pyrido[3,4-d]pyrimidin-4-yl]-acetamide]	0 to 25
O=C(CC12CC3CC(CC(C3)C1)C2)Nc1ncnc2c1CCN(Cc1ccccc1)C2 [Compound 5, 2-Adamantan-1-yl-N-(7-benzyl-5,6,7,8-tetrahydro-pyrido[3,4-d]pyrimidin-4-yl)-acetamide]	25 to 50

Same assay, conditions: at 0.3 μM; THP-1 cells

SMILES	IL-1β % inhibition
CC12CC3(C)CC(C)(C1)CC(C(C)(C)C(=O)Nc1ncnc4c1CCN(Cc1ccccc1)C4)(C2)C3 [Compound 345]	+ (compound exhibited 0-25% inhibition at 0.3 μM)
O=C(Cc1ccccc1)N1CCc2c(ncnc2NC(=O)C23CC4CC(CC(C4)C2)C3)C1 [Compound 398]	+++ (compound exhibited 50-75% inhibition at 0.3 μM)
CC(C)(C)C(=O)N1CCc2c(ncnc2NC(=O)CC23CC4CC(CC(C4)C2)C3)C1 [Compound 252]	++ (compound exhibited 25-50% inhibition at 0.3 μM)
O=C(CC12CC3CC(CC(C3)C1)C2)Nc1ncnc2c1CCN(Cc1ccc3[nH]ccc3c1)C2 [Compound 64]	+ (compound exhibited 0-25% inhibition at 0.3 μM)
COc1cc(CN2CCc3c(ncnc3NC(=O)CC34CC5CC(CC(C5)C3)C4)C2)ccc1O [Compound 117]	+ (compound exhibited 0-25% inhibition at 0.3 μM)
O=C(CC12CC3CC(CC(C3)C1)C2)Nc1ncnc2c1CCN(S(=O)(=O)Cc1cc(Cl)cc(Cl)c1)C2 [Compound 186]	++++ (compound exhibited 75% or greater inhibition at 0.3 μM)
COCC(=O)N1CCc2c(ncnc2NC(=O)CC23CC4CC(CC(C4)C2)C3)C1 [Compound 240]	+ (compound exhibited 0-25% inhibition at 0.3 μM)
O=C(CC12CC3CC(CC(C3)C1)C2)Nc1ncnc2c1CCN(Cc1ccccc1OC(F)F)C2 [Compound 77]	+ (compound exhibited 0-25% inhibition at 0.3 μM)
CCc1ccc(C(=O)N2CCc3c(ncnc3NC(=O)C34CC5CC(CC(C5)C3)C4)C2)cc1 [Compound 402]	+ (compound exhibited 0-25% inhibition at 0.3 μM)
O=C(CC12CC3CC(CC(C3)C1)C2)Nc1ncnc2c1CCN(C(=O)c1c(Cl)cccc1Cl)C2 [Compound 218]	++++ (compound exhibited 75% or greater inhibition at 0.3 μM)
O=C(CC12CC3CC(CC(C3)C1)C2)Nc1ncnc2c1CCN(S(=O)(=O)c1ccc(Cl)c(Cl)c1)C2 [Compound 155]	+ (compound exhibited 0-25% inhibition at 0.3 μM)
CC(C)CC(=O)N1CCc2c(ncnc2NC(=O)CC23CC4CC(CC(C4)C2)C3)C1 [Compound 255]	++ (compound exhibited 25-50% inhibition at 0.3 μM)
O=C(NCC12CC3CC(CC(C3)C1)C2)c1ncnc2c1CCN(Cc1ccccc1Cl)C2 [Compound 337]	++ (compound exhibited 25-50% inhibition at 0.3 μM)
Cc1ccc(CN2CCc3c(ncnc3NC(=O)CC34CC5CC(CC(C5)C3)C4)C2)c(C)c1 [Compound 320]	+ (compound exhibited 0-25% inhibition at 0.3 μM)
CC(C)(C(=O)Nc1ncnc2c1CCN(C(=O)c1cccc(Cl)c1Cl)C2)C12CC3CC(CC(C3)C1)C2 [Compound 364]	+ (compound exhibited 0-25% inhibition at 0.3 μM)
CC12CC3CC(C)(C1)CC(CC(=O)Nc1ncnc4c1CCN(Cc1ccc5c(c1)OCCO5)C4)(C3)C2 [Compound 373]	++++ (compound exhibited 75% or greater inhibition at 0.3 μM)
O=C(CC12CC3CC(CC(C3)C1)C2)Nc1ncnc2c1CCN(Cc1ccc(Oc3ccccc3)cc1)C2 [Compound 75]	+ (compound exhibited 0-25% inhibition at 0.3 μM)

SMILES	IL-1β % inhibition
CC(=O)N1CCc2c(ncnc2NC(=O)CC23CC4CC(CC(C4)C2)C3)C1 [Compound 219]	+ (compound exhibited 0-25% inhibition at 0.3 μM)
O=C(CC1CCCCCC1)Nc1ncnc2c1CCN(Cc1ccccn1)C2 [Compound 94]	+ (compound exhibited 0-25% inhibition at 0.3 μM)
CS(=O)(=O)N1CCc2c(ncnc2NC(=O)CC23CC4CC(CC(C4)C2)C3)C1 [Compound 142]	+++ (compound exhibited 50-75% inhibition at 0.3 μM)
COc1cc(OCc2ccccc2)ccc1CN1CCc2c(ncnc2NC(=O)CC23CC4CC(CC(C4)C2)C3)C1 [Compound 330]	+++ (compound exhibited 50-75% inhibition at 0.3 μM)
O=C(CC12CC3CC(CC(C3)C1)C2)Nc1ncnc2c1CCN(C(=O)C1CCCCC1)C2 [Compound 244]	++ (compound exhibited 25-50% inhibition at 0.3 μM)
COc1cc(CN2CCc3c(ncnc3NC(=O)CC34CC5CC(CC(C5)C3)C4)C2)cc(OC)c1 [Compound 37]	+ (compound exhibited 0-25% inhibition at 0.3 μM)
O=C(CC12CC3CC(CC(C3)C1)C2)Nc1ncnc2c1CCN(S(=O)(=O)c1ccccc1Cl)C2 [Compound 192]	+++ (compound exhibited 50-75% inhibition at 0.3 μM)
O=C(CC12CC3CC(CC(C3)C1)C2)Nc1ncnc2c1CCN(S(=O)(=O)c1cccc(OC(F)(F)F)c1)C2 [Compound 161]	++ (compound exhibited 25-50% inhibition at 0.3 μM)
O=C(NCC12CC3CC(CC(C3)C1)C2)c1ncnc2c1CCN(Cc1ccccc1F)C2 [Compound 139]	++ (compound exhibited 25-50% inhibition at 0.3 μM)
O=C(CC12CC3CC(CC(C3)C1)C2)Nc1ncnc2c1CCN(Cc1ccc(F)cc1F)C2 [Compound 47]	++++ (compound exhibited 75% or greater inhibition at 0.3 μM)
O=C(CC12CC3CC(CC(C3)C1)C2)Nc1ncnc2c1CCN(C(=O)c1cccnc1Oc1ccccc1)C2 [Compound 274]	+ (compound exhibited 0-25% inhibition at 0.3 μM)
O=C(c1ccc(OC(F)(F)F)cc1)N1CCc2c(ncnc2NC(=O)C23CC4CC(CC(C4)C2)C3)C1 [Compound 401]	+ (compound exhibited 0-25% inhibition at 0.3 μM)
CC12CC3CC(C)(C1)CC(CC(=O)Nc1ncnc4c1CCN(S(=O)(=O)Cc1ccc(Cl)cc1)C4)(C3)C2 [Compound 379]	+++ (compound exhibited 50-75% inhibition at 0.3 μM)
COc1ccc(C(=O)N2CCc3c(ncnc3NC(=O)CC34CC5CC(CC(C5)C3)C4)C2)cc1OC [Compound 312]	+ (compound exhibited 0-25% inhibition at 0.3 μM)
Cc1ccc(CN2CCc3c(ncnc3NC(=O)CC34CC5CC(CC(C5)C3)C4)C2)cc1 [Compound 44]	+ (compound exhibited 0-25% inhibition at 0.3 μM)
COc1ccccc1CCC(=O)Nc1ncnc2c1CCN(Cc1c[nH]cn1)C2 [Compound 135]	+ (compound exhibited 0-25% inhibition at 0.3 μM)

Same assay, conditions: at 0.3 μM; THP-1 cells, BzATP-stimulated

SMILES	IL-1β % inhibition
O=C(c1cccc(C(F)(F)F)c1)N1CCc2c(ncnc2NC(=O)C23CC4CC(CC(C4)C2)C3)C1 [Compound 406]	++ (compound exhibited 25-50% inhibition at 0.3 μM)
O=C(c1cc(C(F)(F)F)ccc1Cl)N1CCc2c(ncnc2NC(=O)C23CC4CC(CC(C4)C2)C3)C1 [Compound 443]	++ (compound exhibited 25-50% inhibition at 0.3 μM)
O=C(Nc1ncnc2c1CCN(S(=O)(=O)c1ccccc1Cl)C2)C12CC3CC(CC(C3)C1)C2 [Compound 525]	+ (compound exhibited 0-25% inhibition at 0.3 μM)
O=C(Nc1ncnc2c1CCN(S(=O)(=O)c1ccccc1-c1ccccc1)C2)C12CC3CC(CC(C3)C1)C2 [Compound 527]	+++ (compound exhibited 50-75% inhibition at 0.3 μM)
COc1ccc(F)c(CN2CCc3c(ncnc3NC(=O)C34CC5CC(CC(C5)C3)C4)C2)c1 [Compound 628]	+ (compound exhibited 0-25% inhibition at 0.3 μM)
O=C(Nc1ncnc2c1CCN(S(=O)(=O)c1cccc(OC(F)(F)F)c1)C2)C12CC3CC(CC(C3)C1)C2 [Compound 497]	+ (compound exhibited 0-25% inhibition at 0.3 μM)
O=C(Nc1ncnc2c1CCN(S(=O)(=O)Cc1ccc(F)cc1)C2)C12CC3CC(CC(C3)C1)C2 [Compound 517]	++ (compound exhibited 25-50% inhibition at 0.3 μM)
O=C(Nc1ncnc2c1CCN(Cc1ccc(Cl)cc1)C2)C12CC3CC(CC(C3)C1)C2 [Compound 601]	+++ (compound exhibited 50-75% inhibition at 0.3 μM)
O=C(Nc1ncnc2c1CCN(S(=O)(=O)c1cc(F)ccc1F)C2)C12CC3CC(CC(C3)C1)C2 [Compound 537]	++ (compound exhibited 25-50% inhibition at 0.3 μM)
O=C(Nc1ncnc2c1CCN(Cc1cccc(Br)c1)C2)C12CC3CC(CC(C3)C1)C2 [Compound 614]	+ (compound exhibited 0-25% inhibition at 0.3 μM)
Cc1ccc(CN2CCc3c(ncnc3NC(=O)C34CC5CC(CC(C5)C3)C4)C2)cc1C [Compound 585]	++ (compound exhibited 25-50% inhibition at 0.3 μM)
N#Cc1cccc(C(=O)N2CCc3c(ncnc3NC(=O)C34CC5CC(CC(C5)C3)C4)C2)c1 [Compound 414]	++ (compound exhibited 25-50% inhibition at 0.3 μM)
O=C(Nc1ncnc2c1CCN(Cc1cccc(Cl)c1)C2)C12CC3CC(CC(C3)C1)C2 [Compound 598]	+ (compound exhibited 0-25% inhibition at 0.3 μM)
O=C(c1ccc(C(F)(F)F)cc1F)N1CCc2c(ncnc2NC(=O)C23CC4CC(CC(C4)C2)C3)C1 [Compound 438]	++ (compound exhibited 25-50% inhibition at 0.3 μM)
